Source: patent US20210179666A1, “CYCLIC PEPTIDES AND METHODS OF USE THEREOF” (Regents of the University of Minnesota, priority 2019, published 2021)
Where “and” joins values, the source holds several entries; their conditions need not be identical. Equal values may be shown once. Read-outs that look alike come from different tables or passages of the source. One block for each compound: values may come before it. Square brackets hold non-standard residues; d marks the D form. Peptide text beside a SMILES is read from it. Gly(N-(CH2)3-guanidino) = N=C(N)NCCCNCC(=O)O; Dap = NC[C@H](N)C(=O)O; Sar = CNCC(=O)O

What was measured:
[1] = target: T1, mMC1R (Mus musculus, UniProt Q01727); experiment: cAMP AlphaScreen bioassay, HEK293 cells stably expressing mMC1R; details: for EC50: read-out: mMC1R EC50, ± SEM, >100,000 = no agonist activity up to 100 μM; for mMC1R percent maximal stimulatory response: @ 100 μM, EC50 not determinable
T1 sequence (Q01727 whole entry): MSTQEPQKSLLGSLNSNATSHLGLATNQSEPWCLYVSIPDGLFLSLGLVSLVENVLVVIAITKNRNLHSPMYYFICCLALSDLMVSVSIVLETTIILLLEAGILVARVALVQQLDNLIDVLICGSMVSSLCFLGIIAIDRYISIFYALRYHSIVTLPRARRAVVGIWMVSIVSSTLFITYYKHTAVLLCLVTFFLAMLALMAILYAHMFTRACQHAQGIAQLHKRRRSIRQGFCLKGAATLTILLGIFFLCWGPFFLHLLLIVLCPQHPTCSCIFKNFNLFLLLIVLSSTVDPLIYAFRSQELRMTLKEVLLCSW

[2] = target: T2, mMC3R (Mus musculus, UniProt P33033); details: for mMC3R pA2: antagonist, Schild analysis with NDP-MSH
T2 sequence (P33033 whole entry): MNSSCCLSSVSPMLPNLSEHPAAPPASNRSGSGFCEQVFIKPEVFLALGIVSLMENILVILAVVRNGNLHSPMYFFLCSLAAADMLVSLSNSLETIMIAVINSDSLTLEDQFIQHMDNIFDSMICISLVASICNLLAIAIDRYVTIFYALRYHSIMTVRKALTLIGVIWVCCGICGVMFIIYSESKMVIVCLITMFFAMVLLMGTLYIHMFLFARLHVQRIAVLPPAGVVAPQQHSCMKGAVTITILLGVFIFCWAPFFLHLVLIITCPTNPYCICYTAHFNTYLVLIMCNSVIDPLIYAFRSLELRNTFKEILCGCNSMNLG

[3] = target: T3, mMC5R (Mus musculus, UniProt P41149); details: for mMC5R pA2: antagonist, Schild analysis with NDP-MSH, ± SEM
T3 sequence (P41149 whole entry): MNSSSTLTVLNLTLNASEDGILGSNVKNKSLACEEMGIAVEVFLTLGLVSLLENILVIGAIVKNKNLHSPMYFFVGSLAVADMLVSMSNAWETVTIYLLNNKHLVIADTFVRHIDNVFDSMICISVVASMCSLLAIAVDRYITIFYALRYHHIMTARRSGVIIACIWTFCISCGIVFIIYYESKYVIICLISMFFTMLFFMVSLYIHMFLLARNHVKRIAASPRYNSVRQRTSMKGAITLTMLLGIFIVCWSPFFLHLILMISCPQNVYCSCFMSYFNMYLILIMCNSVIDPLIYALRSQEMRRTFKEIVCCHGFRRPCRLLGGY

[4] = target: T4, hMC4R (Homo sapiens, UniProt P32245); experiment: cAMP AlphaScreen bioassay, HEK293 cells stably expressing hMC4R; assay type: cell-based; design: expressed in transfected cells; details: for Observed Inverse Agonism?: hMC4R, cAMP; for hMC4R pA2: antagonist pA2, Schild analysis with agonist NDP-MSH, ± SEM, <5.0 = no antagonist potency up to 10,000 nM
T4 sequence (P32245 whole entry): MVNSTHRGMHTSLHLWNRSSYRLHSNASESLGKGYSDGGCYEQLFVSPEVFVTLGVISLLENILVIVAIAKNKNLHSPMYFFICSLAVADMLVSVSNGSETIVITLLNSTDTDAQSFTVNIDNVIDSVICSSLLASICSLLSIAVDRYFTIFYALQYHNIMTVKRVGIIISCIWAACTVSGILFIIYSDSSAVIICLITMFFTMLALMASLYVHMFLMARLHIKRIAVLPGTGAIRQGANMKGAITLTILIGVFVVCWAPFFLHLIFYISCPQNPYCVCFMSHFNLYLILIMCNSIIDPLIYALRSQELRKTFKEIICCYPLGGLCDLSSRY

[5] = target: T5, mMC4R (Mus musculus, UniProt P56450); details: ± SEM; for mMC4R pA2: Example 1, antagonist, Schild analysis with NDP-MSH, <5.0 = no antagonist potency up to 10,000 nM
T5 sequence (P56450 whole entry): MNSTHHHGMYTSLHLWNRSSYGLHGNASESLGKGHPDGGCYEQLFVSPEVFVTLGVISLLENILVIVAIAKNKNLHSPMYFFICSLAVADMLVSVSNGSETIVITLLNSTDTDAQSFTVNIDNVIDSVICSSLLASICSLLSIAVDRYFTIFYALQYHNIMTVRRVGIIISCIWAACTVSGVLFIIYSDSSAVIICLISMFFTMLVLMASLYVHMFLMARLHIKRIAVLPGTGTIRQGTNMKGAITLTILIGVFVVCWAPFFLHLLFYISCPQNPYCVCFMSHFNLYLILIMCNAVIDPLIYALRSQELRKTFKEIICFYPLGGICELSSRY

[6] = target: T4, hMC4R; experiment: 125I-NDP-MSH competitive binding assay, transfected HEK293 cells, hMC4R; details: binding IC50 versus control 1 (Asn) or 2 (Dap)
[7] = target: T5, mMC4R; experiment: 125I-NDP-MSH competitive binding assay, transfected HEK293 cells, mMC4R; details: binding IC50 versus control 1 (Asn) or 2 (Dap)
[8] = target: T2, mMC3R; experiment: 125I-NDP-MSH competitive binding assay, transfected HEK293 cells, mMC3R; details: binding IC50 versus control 1 (Asn) or 2 (Dap)
[9] = target: T3, mMC5R; experiment: 125I-NDP-MSH competitive binding assay, transfected HEK293 cells, mMC5R; details: binding IC50 versus control 1 (Asn) or 2 (Dap)
[10] = target: T1, mMC1R; experiment: 125I-NDP-MSH competitive binding assay, transfected HEK293 cells, mMC1R; details: binding IC50 versus control 1 (Asn) or 2 (Dap)
[11] = Example 2 (Table 7, first EC50 column)
[12] = Example 2, ± SEM, <5.5 = no antagonist potency up to 10,000 nM
[13] = Example 2, basal to plateau signal, sigmoidal dose-response
[14] = Example 1, ± SEM, <5.0 = no antagonist potency up to 10,000 nM

Compound: C[C@@H]1NC(=O)[C@H](CC(N)=O)NC(=O)[C@H](Cc2ccccc2)NC(=O)[C@H](Cc2ccccc2)NC(=O)CN(CCCNC(=N)N)C(=O)[C@@H]2CCCN2C(=O)[C@H]2CCCN2C(=O)[C@H](Cc2ccccc2)NC1=O [MDE7-26-1c, c[Pro-NArg-Phe-Phe-Asn-Ala-Phe-DPro]] (cyclo(P[Gly(N-(CH2)3-guanidino)]FFNAF[dP]))
mMC1R pharmacology observed (Partial Agonist) ([1]; Example 2): Partial
mMC1R partial agonist, percentage of activation relative to NDP-MSH ([1]; Example 2, maximal signal): 50% NDP-MSH

EC50 [1, 11]: 1 µM
Compound: CN1CC(=O)N[C@@H](Cc2ccccc2)C(=O)N2CCC[C@@H]2C(=O)N2CCC[C@H]2C(=O)N[C@@H](CCCNC(=N)N)C(=O)N[C@@H](Cc2ccccc2)C(=O)N[C@@H](Cc2ccccc2)C(=O)N[C@@H](CC(N)=O)C1=O [MDE7-26-4c, c[Pro-Arg-Phe-Phe-Asn-NAla-Phe-DPro]] (cyclo(PRFFN[Sar]F[dP]))

mMC1R percent maximal stimulatory response ([1]; Example 2): 85% @
mMC3R percent maximal stimulatory response ([2]; Example 2, @ 100 μM): 60% @
Compound: C[C@@H]1NC(=O)[C@H](CC(N)=O)NC(=O)[C@H](Cc2ccccc2)NC(=O)[C@H](Cc2ccccc2)NC(=O)[C@H](CCCNC(=N)N)NC(=O)[C@@H]2CCCN2C(=O)[C@H]2CCCN2C(=O)CN(Cc2ccccc2)C1=O [MDE7-26-5c, c[Pro-Arg-Phe-Phe-Asn-Ala-NPhe-DPro]]

mMC5R inverse agonist, percent decrease from basal [3]: −10%
Compound: C[C@@H]1NC(=O)[C@H](CN)NC(=O)[C@H](Cc2ccccc2)NC(=O)[C@H](Cc2ccccc2)NC(=O)[C@H](CCCNC(=N)N)NC(=O)[C@@H]2CCCN2C(=O)[C@H]2CCCN2C(=O)CN(Cc2ccccc2)C1=O [MDE8-108-7c, c[Pro-Arg-Phe-Phe-Dap-Ala-NPhe-DPro]]

Compound: C[C@@H]1NC(=O)[C@H](CN)NC(=O)[C@H](Cc2ccccc2)NC(=O)CN(Cc2ccccc2)C(=O)[C@H](CCCNC(=N)N)NC(=O)[C@@H]2CCCN2C(=O)[C@H]2CCCN2C(=O)[C@H](Cc2ccccc2)NC1=O [MDE9-32c, c[Pro-Arg-NPhe-Phe-Dap-Ala-Phe-DPro]]
mMC1R pharmacology observed (Partial Agonist) ([1]; Example 2): Partial
mMC5R pharmacology observed (Partial Agonist / Inverse Agonist) ([3]; Example 2): Partial
mMC3R pA2 [2, 12]: 6.9 ± 0.3

Compound: C[C@@H]1NC(=O)[C@H](CC(N)=O)NC(=O)[C@H](Cc2ccccc2)NC(=O)CN(Cc2ccccc2)C(=O)[C@H](CCCNC(=N)N)NC(=O)[C@@H]2CCCN2C(=O)[C@H]2CCCN2C(=O)[C@H](Cc2ccccc2)NC1=O [MDE9-77c, c[Pro-Arg-NPhe-Phe-Asn-Ala-Phe-DPro]]
EC50 [1, 11]: 0.24 µM
mMC5R pharmacology observed (Partial Agonist / Inverse Agonist) ([3]; Example 2): Inverse
mMC5R inverse agonist, percentage change from basal ([3]; Example 2, @ 100 μM, no sigmoidal dose-response curve): −10% @
mMC3R pA2 [2, 12]: 5.8 ± 0.1

Compound: C[C@@H]1NC(=O)[C@H](CC(N)=O)NC(=O)CN(Cc2ccccc2)C(=O)[C@H](Cc2ccccc2)NC(=O)[C@H](CCCNC(=N)N)NC(=O)[C@@H]2CCCN2C(=O)[C@H]2CCCN2C(=O)[C@H](Cc2ccccc2)NC1=O [MDE9-88c, c[Pro-Arg-Phe-NPhe-Asn-Ala-Phe-DPro]]
mMC1R pharmacology observed (Partial Agonist) ([1]; Example 2): Partial
mMC5R pharmacology observed (Partial Agonist / Inverse Agonist) ([3]; Example 2): Inverse
mMC5R pA2 ([3]; Example 2): 6.1 and 6.1 ± 0.1
mMC5R inverse agonist, percent decrease from basal [3, 13]: −10%
mMC3R pA2 [2, 12]: 6.0 ± 0.1

Compound: C[C@@H]1NC(=O)[C@H](CN)NC(=O)CN(Cc2ccccc2)C(=O)[C@H](Cc2ccccc2)NC(=O)[C@H](CCCNC(=N)N)NC(=O)[C@@H]2CCCN2C(=O)[C@H]2CCCN2C(=O)[C@H](Cc2ccccc2)NC1=O [MDE9-93c, c[Pro-Arg-Phe-NPhe-Dap-Ala-Phe-DPro]]
mMC1R pharmacology observed (Partial Agonist) ([1]; Example 2): Partial
mMC5R pharmacology observed (Partial Agonist / Inverse Agonist) ([3]; Example 2): Inverse
mMC5R inverse agonist, percent decrease from basal [3, 13]: −10%
mMC3R pA2 [2, 12]: 7.1 ± 0.1

Compound: C[C@@H]1NC(=O)CN(CCN)C(=O)[C@H](Cc2ccccc2)NC(=O)[C@H](Cc2ccccc2)NC(=O)[C@H](CCCNC(=N)N)NC(=O)[C@@H]2CCCN2C(=O)[C@H]2CCCN2C(=O)[C@H](Cc2ccccc2)NC1=O [MDE9-111c, c[Pro-Arg-Phe-Phe-NDab-Ala-Phe-DPro]]
mMC1R percent maximal stimulatory response ([1]; Example 2): 60% @
mMC5R inverse agonist, percent decrease from basal [3]: −10%

Observed Inverse Agonism? [4]: Yes
Compound: C[C@@H]1NC(=O)[C@H](CC(N)=O)NC(=O)[C@H](Cc2ccccc2)NC(=O)[C@H](Cc2ccccc2)NC(=O)[C@H](CCCNC(=N)N)NC(=O)[C@@H]2CCCN2C(=O)[C@H]2CCCN2C(=O)[C@H](Cc2ccccc2)NC1=O [MDE 6-82-3c, c[Pro-Arg-Phe-Phe-Asn-Ala-Phe-DPro]]

Compound: CC(C)[C@@H]1NC(=O)[C@H](CN)NC(=O)[C@H](Cc2ccccc2)NC(=O)[C@H](Cc2ccccc2)NC(=O)[C@H](CCCNC(=N)N)NC(=O)[C@@H]2CCCN2C(=O)[C@H]2CCCN2C(=O)[C@H](Cc2ccccc2)NC1=O [ZMK 2-85, c[Pro-Arg-Phe-Phe-Dap-Val-Phe-DPro]]
mMC4R pA2 [5]: 7.5
mMC5R pA2 ([3]; Example 1, reported herein for the first time): 6.3 and 6.3 ± 0.03
hMC4R pA2 [4]: 7.6 and 7.6 ± 0.06
Observed Inverse Agonism? [4]: Yes
mMC3R pA2 [2, 14]: 6.1 and 6.1 ± 0.03

Compound: C[C@@H]1NC(=O)[C@H](CC(N)=O)NC(=O)[C@H](Cc2ccccc2)NC(=O)[C@H](Cc2ccccc2)NC(=O)[C@H](Cc2c[nH]cn2)NC(=O)[C@@H]2CCCN2C(=O)[C@H]2CCCN2C(=O)[C@H](Cc2ccccc2)NC1=O [ZMK 2-96, c[Pro-His-Phe-Phe-Asn-Ala-Phe-DPro]] (cyclo(PHFFNAF[dP]))
mMC4R pA2 [5]: 5.3 and 5.3 ± 0.1
hMC4R Fold Diff [6]: 300
hMC4R pA2 [4]: 5.8 and 5.8 ± 0.2
Observed Inverse Agonism? [4]: Yes
mMC4R Fold Diff [7]: 300

Compound: C[C@@H]1NC(=O)[C@H](CN)NC(=O)[C@H](Cc2ccccc2)NC(=O)[C@H](Cc2ccccc2)NC(=O)[C@H](Cc2c[nH]cn2)NC(=O)[C@@H]2CCCN2C(=O)[C@H]2CCCN2C(=O)[C@H](Cc2ccccc2)NC1=O [ZMK 2-99, c[Pro-His-Phe-Phe-Dap-Ala-Phe-DPro]] (cyclo(PHFF[Dap]AF[dP]))
mMC3R Fold Diff [8]: 5
mMC5R Fold Diff [9]: 7
mMC4R pA2 [5]: 6.0 and 6.0 ± 0.1
hMC4R Fold Diff [6]: 400
mMC1R Fold Diff [10]: 5
hMC4R pA2 [4]: 6.4 and 6.4 ± 0.09
Observed Inverse Agonism? [4]: No
mMC3R pA2 [2, 14]: 5.4 and 5.4 ± 0.1
mMC4R Fold Diff [7]: 500

Compound: C[C@@H]1NC(=O)[C@H](CC(N)=O)NC(=O)[C@H](Cc2ccccc2)NC(=O)[C@H](Cc2ccc(O)cc2)NC(=O)[C@H](CCCNC(=N)N)NC(=O)[C@@H]2CCCN2C(=O)[C@H]2CCCN2C(=O)[C@H](Cc2ccccc2)NC1=O [ZMK 2-110, c[Pro-Arg-Tyr-Phe-Asn-Ala-Phe-DPro]] (cyclo(PRYFNAF[dP]))
mMC4R pA2 [5]: 6.1 and 6.1 ± 0.03
hMC4R Fold Diff [6]: 2000
mMC5R pharmacology observed in agonist assay (Inverse Agonist) ([3]; Example 1): Inverse
hMC4R pA2 [4]: 6.5 and 6.5 ± 0.2
Observed Inverse Agonism? [4]: Yes
mMC3R pA2 [2, 14]: 5.8 and 5.8 ± 0.2
mMC4R Fold Diff [7]: 100

Compound: C[C@@H]1NC(=O)[C@H](CC(N)=O)NC(=O)[C@H](Cc2ccccc2)NC(=O)[C@H](Cc2ccccc2)NC(=O)[C@H](CS)NC(=O)[C@@H]2CCCN2C(=O)[C@H]2CCCN2C(=O)[C@H](Cc2ccccc2)NC1=O [ZMK 3-18, c[Pro-Cys-Phe-Phe-Asn-Ala-Phe-DPro]] (cyclo(PCFFNAF[dP]))
mMC4R EC50 (nM) ([5]; Example 1, agonist, >100,000 = no agonist activity up to 100 μM): unable to stimulate
mMC4R pA2 [5]: 5.9
hMC4R Fold Diff [6]: 300
mMC1R percent maximal stimulatory response ([1]; Example 1, relative to NDP-MSH signal): 46%
mMC1R Fold Diff [10]: 3
mMC5R pharmacology observed in agonist assay (Inverse Agonist) ([3]; Example 1): inverse agonist activity
mMC5R inverse agonist, percent change from basal ([3]; Example 1, @ 100 μM, no sigmoidal dose-response curve): −32%
hMC4R pA2 [4]: 5.8 and 5.8 ± 0.2
Observed Inverse Agonism? [4]: No
mMC3R EC50 (nM) ([2]; Example 1, agonist, ± SEM, >100,000 = no agonist activity up to 100 μM): unable to stimulate
mMC4R Fold Diff [7]: 90

Compound: C[C@@H]1NC(=O)[C@H](CN)NC(=O)[C@H](Cc2ccccc2)NC(=O)[C@H](Cc2ccccc2)NC(=O)[C@H](CS)NC(=O)[C@@H]2CCCN2C(=O)[C@H]2CCCN2C(=O)[C@H](Cc2ccccc2)NC1=O [ZMK 3-20, c[Pro-Cys-Phe-Phe-Dap-Ala-Phe-DPro]] (cyclo(PCFF[Dap]AF[dP]))
mMC3R Fold Diff [8]: 15
hMC4R Fold Diff [6]: 2100
mMC1R stimulation of the receptor, % of the NDP-MSH control ([1]; full agonist, maximal stimulation): 98%
EC50 ([1]; Example 1, agonist): 4 µM
mMC1R Fold Diff [10]: 6
Observed Inverse Agonism? [4]: No
hMC4R agonist stimulation ([4]; up to 100 μM concentrations): unable to stimulate
mMC4R Fold Diff [7]: 5200
